ChEMBL document CHEMBL1140267, “Synthesis and pharmacological evaluation of substituted 5-[4-[2-(6,7-dimethyl-1,2,3,4-tetrahydro-2-oxo-4-quinoxalinyl)ethoxy]phenyl]methylene]thiazolidine-2,4-dione derivatives as potent euglycemic and hypolipidemic agents” (Bioorg Med Chem Lett, 2005)

Assays:
Assay type in all cases: ADME, organism-based
Settings in all cases: in vivo
[1] = Percent decrease in plasma glucose level of wistar rat was determined at 3 mg/kg dosage of the compound; set-up: dose 3 mg/kg
[2] = Percent decrease in triglyceride level of wistar rat was determined at 100 mg/kg dosage of the compound; set-up: dose 100 mg/kg
[3] = Percent decrease in plasma glucose level of wistar rat was determined at 10 mg/kg dosage of the compound; set-up: dose 10 mg/kg
[4] = Percent decrease in plasma glucose level of wistar rat was determined at 30 mg/kg dosage of the compound; set-up: dose 30 mg/kg
[5] = Percent decrease in plasma glucose level of wistar rat was determined at 100 mg/kg dosage of the compound; set-up: dose 100 mg/kg
[6] = Percent decrease in triglyceride level of wistar rat was determined at 3 mg/kg dosage of the compound; set-up: dose 3 mg/kg
[7] = Percent decrease in triglyceride level of wistar rat was determined at 10 mg/kg dosage of the compound; set-up: dose 10 mg/kg
[8] = Percent decrease in triglyceride level of wistar rat was determined at 30 mg/kg dosage of the compound; set-up: dose 30 mg/kg

| SMILES | Decrease [1] [%] | Decrease [2] [%] | Decrease [3] [%] | Decrease [4] [%] | Decrease [5] [%] | Decrease [6] [%] | Decrease [7] [%] | Decrease [8] [%] |
| --- | --- | --- | --- | --- | --- | --- | --- | --- |
| Cc1cc2c(cc1C)N(CCOc1ccc(/C=C3/SC(=O)NC3=O)cc1)C(c1ccccc1)C(=O)N2 (stereo unspecified) | 25.24 | 29.73 | 21.69 | 40.26 | 53.96 | 16.87 | 20.36 | 22.46 |
| Cc1cc2c(cc1C)N(CCOc1ccc(/C=C3/SC(=O)NC3=O)cc1)C(C)C(=O)N2 (stereo unspecified) | 43.16 | 43.42 | 42.17 | 58.48 | 69.72 | 23.46 | 32.62 | 40 |
| Cc1cc2c(cc1C)N(CCOc1ccc(/C=C3/SC(=O)NC3=O)cc1)CC(=O)N2 | 50.12 | 54.95 | 52.63 | 69.47 | 81.25 | 49.63 | 44.2 | 49.12 |
| Cc1cc2c(cc1C)N(CCCOc1ccc(/C=C3/SC(=O)NC3=O)cc1)C(C)C(=O)N2 (stereo unspecified) | 35.73 | 37.46 | 39.21 | 49.62 | 64.26 | 21.73 | 29.69 | 28.82 |
| Cc1cc2c(cc1C)N(CCCOc1ccc(/C=C3/SC(=O)NC3=O)cc1)CC(=O)N2 | 47.65 | 50.1 | 49.11 | 64.76 | 72.33 | 30.36 | 38.13 | 47.35 |
| Cc1cc2c(cc1C)N(CCCOc1ccc(/C=C3/SC(=O)NC3=O)cc1)C(c1ccccc1)C(=O)N2 (stereo unspecified) | 18.68 | 22.89 | 19.25 | 26.42 | 38.96 | 10.46 | 10.66 | 14.73 |
| CN(CCOc1ccc(CC2SC(=O)NC2=O)cc1)c1ccccn1 (stereo unspecified) [ROSIGLITAZONE] | 41.6 | 46 | 47.25 | 65 | 75.5 | 47 | 35.25 | 41 |
